# Literature values in patent US20110243859A1, “ENCAPSULATING SYSTEM FOR CEST IMAGING WITH CHELATE Q GREATER THAN OR EQUAL TO 2” (GUERBET, priority 2008, published 2011).
# Legend:
# [1] = spherical liposome, maximum accessible concentration inside
# [2] = monomeric chelate
Molecule,Value q [2],Delta shift value [1]
CC(O)CN1CCN(CC(=O)[O-])CCN(CC(=O)[O-])CCN(CC(=O)[O-])CC1.[Tm+3] (stereo not drawn) [HP-DO3A-Tm],–,3.5 ppm
O=C(O)CN1CCNCCN(CC(=O)O)CCN(CC(=O)O)CC1 [DO3A],2,–
CC(O)CN1CCN(CC(=O)O)CCN(CC(=O)O)CCN(CC(=O)O)CC1 (stereo not drawn) [HP-DO3A],1,–
O=C(O)CN1CCNCCN(CC(=O)O)CCNCC1 [DO2A],3,–
O=C(O)CN1CCN(CC(=O)O)Cc2cccc(n2)CN(CC(=O)O)CC1 [PCTA],2,–
CC1(N(CC(=O)O)CC(=O)O)CN(CC(=O)O)CCN(CC(=O)O)C1 [AAZTA],2,–
O=C(O)CN1CCN(CC(=O)O)CCN(CC(=O)O)CCN(CC(=O)O)CC1 [DOTA],1,–
CC(C(=O)O)N1CCNCCN(C(C)C(=O)O)CCN(C(C)C(=O)O)CC1 (stereo not drawn) [DO3MA],2,–

# More lines, main results first:
Value q [2],Molecule,Delta shift value [1]
2,CC(CN(CC(=O)O)CC(=O)O)N(CC(=O)O)CC(=O)O (stereo not drawn) [MeDTA],–
2,NC1C(O)C(N)C(O)C(N)C1O (stereo not drawn) [Taci],–
3.5,texaphyrin [Tx],–
2,CC(C(=O)O)N1CCN(C(C)C(=O)O)CCN(C(C)C(=O)O)CC1 (stereo not drawn) [NOTMA],–
